Experimental data reported in PubChem BioAssay (NCI).
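A five-concentration, 48-hour dose response in 96-well plates underlies each endpoint, interpolated linearly between surrounding concentrations. TGI: total growth inhibition.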

Assays:
Test in all cases: growth of human tumour cells (NCI), 48 h
M14 melanoma = system: M14 melanoma
NCI-H23 lung = system: NCI-H23 lung
NCI-H460 lung = system: NCI-H460 lung
ACHN renal = system: ACHN renal
A498 renal = system: A498 renal
IGROV1 ovarian = system: IGROV1 ovarian
SNB-19 CNS = system: SNB-19 CNS
UACC-62 melanoma = system: UACC-62 melanoma
HCC-2998 colon = system: HCC-2998 colon
OVCAR-3 ovarian = system: OVCAR-3 ovarian
HCT-116 colon = system: HCT-116 colon
MALME-3M melanoma = system: MALME-3M melanoma
HT29 colon = system: HT29 colon
BT-549 breast = system: BT-549 breast
SK-OV-3 ovarian = system: SK-OV-3 ovarian
SW-620 colon = system: SW-620 colon
CCRF-CEM leukemia = system: CCRF-CEM leukemia
HS 578T breast = system: HS 578T breast
TK-10 renal = system: TK-10 renal
SF-539 CNS = system: SF-539 CNS
NCI-H522 lung = system: NCI-H522 lung
U251 CNS = system: U251 CNS
SF-268 CNS = system: SF-268 CNS
UACC-257 melanoma = system: UACC-257 melanoma
SN12C renal = system: SN12C renal
NCI/ADR-RES ovarian = system: NCI/ADR-RES ovarian
MDA-MB-435 = system: MDA-MB-435
SR leukemia = system: SR leukemia
RPMI-8226 leukemia = system: RPMI-8226 leukemia
RXF 393 renal = system: RXF 393 renal
CAKI-1 renal = system: CAKI-1 renal
NCI-H226 lung = system: NCI-H226 lung
SK-MEL-28 melanoma = system: SK-MEL-28 melanoma
786-0 renal = system: 786-0 renal
EKVX NSCLC = system: EKVX NSCLC
LOX IMVI melanoma = system: LOX IMVI melanoma
HL-60(TB) leukemia = system: HL-60(TB) leukemia
OVCAR-8 ovarian = system: OVCAR-8 ovarian
SK-MEL-2 melanoma = system: SK-MEL-2 melanoma
PC-3 prostate = system: PC-3 prostate
COLO 205 colon = system: COLO 205 colon
K-562 leukemia = system: K-562 leukemia
T-47D breast = system: T-47D breast
SF-295 CNS = system: SF-295 CNS
OVCAR-5 ovarian = system: OVCAR-5 ovarian
MDA-MB-231 breast = system: MDA-MB-231 breast
DU-145 prostate = system: DU-145 prostate
MCF7 breast = system: MCF7 breast
HOP-62 NSCLC = system: HOP-62 NSCLC
HCT-15 colon = system: HCT-15 colon
KM12 colon = system: KM12 colon
UO-31 renal = system: UO-31 renal
A549 NSCLC = system: A549 NSCLC
SK-MEL-5 melanoma = system: SK-MEL-5 melanoma

With CCOC(=O)C(Br)(C(N)=O)C1(O)OC(c2ccccc2)=C(Br)C1=O (centres undefined) the TGI (M14 melanoma) was 62.9 µM, the TGI (NCI-H23 lung) was 53.7 µM and the TGI (NCI-H460 lung) was > 100 µM. The TGI (ACHN renal) was 32.3 µM, the TGI (A498 renal) was > 100 µM and the TGI (IGROV1 ovarian) was 43.5 µM. For the same compound, the TGI (SNB-19 CNS) was > 100 µM, the TGI (UACC-62 melanoma) was 92.9 µM and the TGI (HCC-2998 colon) was 35 µM. For the same compound, the TGI (OVCAR-3 ovarian) was 55 µM, the TGI (HCT-116 colon) was 36.5 µM and the TGI (MALME-3M melanoma) was 55.6 µM. For the same compound, the TGI (HT29 colon) was 39.3 µM, the TGI (BT-549 breast) was 34.3 µM and the TGI (SK-OV-3 ovarian) was > 100 µM. For the same compound, the TGI (SW-620 colon) was 43.1 µM, the TGI (CCRF-CEM leukemia) was 10.2 µM and the TGI (HS 578T breast) was > 100 µM. It also gave a TGI (TK-10 renal) of 33.3 µM, a TGI (SF-539 CNS) of 32.3 µM and a TGI (NCI-H522 lung) of 11.7 µM. For the same compound, the TGI (U251 CNS) was 32.6 µM, the TGI (SF-268 CNS) was 41.5 µM and the TGI (UACC-257 melanoma) was > 100 µM. The TGI (SN12C renal) was 31.7 µM, the TGI (NCI/ADR-RES ovarian) was > 100 µM and the TGI (MDA-MB-435) was > 100 µM. It also gave a TGI (SR leukemia) of 41.3 µM, a TGI (RPMI-8226 leukemia) of 27.7 µM and a TGI (RXF 393 renal) of 34.4 µM. The TGI (CAKI-1 renal) was 40.1 µM, the TGI (NCI-H226 lung) was 42.3 µM and the TGI (SK-MEL-28 melanoma) was > 100 µM. It also gave a TGI (786-0 renal) of 41.9 µM, a TGI (EKVX NSCLC) of 46.8 µM and a TGI (LOX IMVI melanoma) of 46.1 µM. For the same compound, the TGI (HL-60(TB) leukemia) was > 100 µM, the TGI (OVCAR-8 ovarian) was 33.3 µM and the TGI (SK-MEL-2 melanoma) was > 100 µM. The TGI (PC-3 prostate) was 36.3 µM, the TGI (COLO 205 colon) was 30.7 µM and the TGI (K-562 leukemia) was 53.7 µM. For the same compound, the TGI (T-47D breast) was 59.6 µM, the TGI (SF-295 CNS) was > 100 µM and the TGI (OVCAR-5 ovarian) was 37 µM. The TGI (MDA-MB-231 breast) was 33.6 µM, the TGI (DU-145 prostate) was > 100 µM and the TGI (MCF7 breast) was 41 µM. For the same compound, the TGI (HOP-62 NSCLC) was 81.2 µM, the TGI (HCT-15 colon) was 34.8 µM and the TGI (KM12 colon) was > 100 µM. The TGI (UO-31 renal) was 44 µM, the TGI (A549 NSCLC) was 66.8 µM and the TGI (SK-MEL-5 melanoma) was 60.2 µM.
